Assay results: patent publication US20070225348A1, “Amino acid composition for improving glucose tolerance” (priority 2005, published 2007)

System: Zucker Diabetic Fatty rats (model with type 2 diabetes mellitus)
Experiment: Experiment 2: blood glucose response after oral gavage of glucose with amino acid test mixture or isoleucine solution
Assay type: in vivo, rat
Conditions: oral gavage 8 ml/kg with glucose, measured at 30, 60, 90 and 120 minutes, control 22.5% glucose solution
Method: The control formula (22.5% glucose solution) and the amino acid test formula described in Experiment 1 are prepared and subsequently used in this second experiment, along with an isoleucine mixture as described below. In this second experiment, a high dose isoleucine mixture is prepared by adding L-isoleucine ([…]) to 50 ml beaker followed by 10 ml of 1N HCL. The beaker contents are mixed until dissolved, and thereafter to it is added with agitation 25 ml of a 45% glucose solution. The pH of the resulting mixture is adjusted to 7.0 (+/−1.0) with a 50% sodium hydroxide solution (buffer may be added to stabilize pH). The pH adjusted mixture is transferred to a 50 ml volumetric and brought to volume with distilled water. The mixture is transferred to a beaker with stir bar and continually stirred while filling syringes. Zucker Diabetic Fatty rats, a model of type 2 diabetes, are received at the animal facility for at least one week before testing. Each is weighed the day before the experiment and then assigned to one of […] matched for body weight. After an overnight fast, each rat is weighed and then dosed at 8 ml/kg body weight (oral gavage) with the glucose control, the amino acid test mixture, or the isoleucine solution. Blood glucose concentrations are then measured from the tip of the tail of each animal at 30, 60, 90 and 120 minutes following the gavage.

## CC[C@H](C)[C@H](N)C(=O)O [high dose isoleucine, L-isoleucine]
  blood glucose concentrations relative to the control: does not significantly affect blood glucose concentrations
